The results in this text go back to patent publication US20090169521A1, “Vascularized cardiac tissue and methods of producing and using same” (Technion Research & Development Foundation Ltd., priority 2007, published 2009).

Entries after “also recorded” stand apart in the source; their conditions may differ.

The subject of assay [1] is spontaneously contracting engineered cardiac tissue (gap junctions between hESC-CM). Nature of the assay: Laser confocal Ca2+ imaging (Fluo-4) of impulse propagation. The assay is classed as cell-based, human. Particulars: 1 mM, calcium imaging. On the procedure: Laser scanning confocal Ca-imaging: Scaffolds were loaded with fluo-4 Ca AM (Molecular Probes) indicator to visualize free Ca^+2 levels. To this purpose, 5 mM stock solution of fluo-4 AM in DMSO was, diluted in standard hESC medium, at dilution of 1:1000 giving a final concentration of 5 μM. The non-ionic detergent Pluronic F-127 (Molecular Probes) was used to assist dispersion of the nonpolar fluo-4 AM ester in the aqueous media. Scaffolds were incubated for 45 minutes at 37° C. Following incubation the scaffolds were washed (×3) with indicator-free control tyrode solution removing any dye non-specifically associated with the cell surface. Afterwards the scaffolds were further incubated for 15 minutes allowing complete de-esterification of intracellular AM esters (according to manufacture's instructions). […]
Since the ultrastructural characterization clearly indicated the presence of gap junctions between adjacent hESC-CM (FIG. 7D), the present inventors sought to determine whether these formed gap junctions mediate impulse conduction between the hESC-CM and therefore allow synchronous contraction. […] The beating frequency of the spontaneously contracting cardiac tissue was evaluated following application of different pharmacological agents. […]

For assay [2], the system named is spontaneously contracting engineered cardiac tissue. Nature of the assay: Beating frequency of engineered cardiac tissue after chronotropic agents. Type of assay: cell-based, human. As to conditions: 1 μM, n=4; before application 1.6±0.3 Hz (isoproterenol), 1.7±0.2 Hz (carbamylcholine). On the procedure: Since the ultrastructural characterization clearly indicated the presence of gap junctions between adjacent hESC-CM (FIG. 7D), the present inventors sought to determine whether these formed gap junctions mediate impulse conduction between the hESC-CM and therefore allow synchronous contraction. The gap junction uncoupler, 1-heptanol (1 mM), was applied to the spontaneously contracting engineered cardiac tissue. […] The beating frequency of the spontaneously contracting cardiac tissue was evaluated following application of different pharmacological agents. Appropriate positive and negative chronotropic responses were observed following application of the β-agonist, isoproterenol (1 μM) and the muscarinic agonist—carbamylcholine (1 μM). Thus, isoproterenol increased the beating frequency of the engineered cardiac issue from 1.6±0.3 Hz to 2.1±0.3 Hz (p<0.05, n=4), while carbamylcholine decreased the beating frequency from 1.7±0.2 Hz to 1.4±0.1 Hz (p=0.055, n=4).

Regarding `CCCCCCCO` [1-heptanol], the impulse propagation result in assay [1] is on record as “complete inhibition; also recorded: completely inhibited”.

Consider `C[N+](C)(C)CCOC(N)=O.[Cl-]` [carbamylcholine], for which, in assay [2], the “beating frequency after application of the agent” value is reported as 1.4±0.1 Hz.

Regarding `CC(C)NCC(O)c1ccc(O)c(O)c1` (stereo not drawn) [isoproterenol], in assay [2], the “beating frequency after application of the agent” value was 2.1±0.3 Hz.
